Experimental data: patent US12617752B2, “Rapidly metabolized lipid compound” (Beijing Jitai Life Sciences Ltd, priority 2023, dated 2026)

What was measured:
[1] = Encapsulation efficiency of lipid nanoparticles (Quant-it RiboGreen RNA Assay); format: physicochemical; conditions: lipid nanoparticles with luciferase mRNA
Procedure, shortened: (§1)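 LNPs of ionizable lipid/cholesterol/phospholipid/PEG-lipid (50/38.5/10/1.5 mol%, N/P 6) were formed by microfluidic mixing with mRNA in pH 4.5 acetate, then buffer-exchanged by ultrafiltration. Size and PDI were measured by DLS. Encapsulation came from RiboGreen fluorescence (485/528 nm) in TE pH 7.5, with and without 0.5% Triton at 37 °C for 30 min.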

[2] = Particle size and PDI of lipid nanoparticles by dynamic light scattering; format: physicochemical; conditions: lipid nanoparticles with luciferase mRNA; ionizable lipid/cholesterol/DSPC/DMG-PEG2000 50/38.5/10/1.5 mol%
Procedure, shortened: as §1

[3] = Clearance rate of ionizable lipids in vivo (liver content by LC-MS/MS); conditions: C57 WT female mice, tail vein, 100 μL unloaded LNP (0.1 mg/mL)
Method: The 6-8 weeks old C57 WT female mice (n=3) were injected by tail vein administration of 100 μL of unloaded LNP (0.1 mg/mL) formed from the ionizable lipid, cholesterol, DSPC, and DMG-PEG 2000 at a ratio of 50:38.5:10:1.5. The experimental animals were executed by removing the cervical vertebrae and dissected for the liver at 24 h and 72 h after administration, respectively, while the same batch of non-dosed experimental animal livers were used as a blank control group. Water was added to the liver sample for homogenization, and the protein was precipitated. The content of the ionizable lipid in the sample was quantitatively analyzed using LC-MS/MS in comparison to a calibration standard prepared from matched blank liver tissues.

C57BL/6 mice = experiment: In vivo delivery of luciferase mRNA lipid nanoparticles in mice (bioluminescence imaging); conditions: intravenous, single dose 0.5 mg/kg luciferase mRNA
Procedure, shortened: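 Female C57BL/6 mice, 6-8 weeks old, received luciferase mRNA lipid nanoparticles as a single intravenous dose of 0.5 mg/kg mRNA. At 6 h, D-luciferin given intraperitoneally; 10 min later, mice were imaged under isoflurane anaesthesia. Values are group mean fluorescence intensity and total photon count.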

HEK293T cells [4] = experiment: Cytotoxicity testing with CCK-8 reagent; format: cell-based, human; conditions: CCK-8, 24 h, relative to PBS negative control
Method: (§2) The delivery effect and safety of nanoparticles encapsulated with luciferase mRNA were evaluated at the cellular level in vitro. The cells used in the assay were human embryonic kidney cells 293 (HEK293T cells) cultured in DMEM (Dulbecco's Modified Eagle Medium) (purchased from Thermo Fisher) containing 10% fetal bovine serum and 5% penicillin-streptomycin double antibiotics at a indoor temperature of 37° C. and a CO2 concentration of 5%. The cells were uniformly dispersed and spread in 48-well plates, and incubated in the incubator for 24 h. Then a solution of the lipid nanoparticles encapsulated with luciferase mRNA were added. After 24 h, the cells were lysed, and the intracellular expression intensity and relative light units (RLU) of luciferase in each type of lipid nanoparticles were measured with a luciferase detection reagent (purchased from Promega). The higher the intensity of expression, the higher the delivery efficiency of the lipid material at the cellular level. […] The absorbance values were read on a multifunctional microplate reader at an absorbance band of 450 nm. The ratio of the absorbance value of the nanoparticle-treated cells to that of the negative control was used as a characterization parameter for cell viability.

HEK293T cells [5] = experiment: In vitro delivery efficiency of luciferase mRNA nanoparticles (luciferase expression); format: cell-based, human; conditions: 24 h
Method: as §2

Encapsulation efficiency (%) [1]	Particle size (nm) [2]	Particle-size distribution (PDI) [2]	Percentage of cationic lipids in the liver in the total dose, 24 h after administration (%) [3]	Percentage of cationic lipids in the liver in the total dose, 72 h after administration (%) [3]	Percentage of cationic lipids in the liver in the total dose, 72 h after administration (%) ([3]; listed as control group)	Compound	Total photon count in vivo at 6 hours after administration (Total Flux) (C57BL/6 mice)	Cell viability (%) (HEK293T cells [4])	Luciferase luminescence of cell lysate (HEK293T cells [5])
89.89%	88.59 nm	0.031	15 ± 4.2%	<1%		CCCCCCCCCC(=O)OCC(C)(C)CCCCCN(CCO)CCCCCCCC(=O)OC(CCCCCCCC)CCCCCCCC [1b]	9.34E+10		
93.03%	99.44 nm	0.050	2%	<1%		CCCCCCCCCC(=O)OCC1(CCCCCN(CCO)CCCCCCCC(=O)OCC(CCCCCCC)CCCCCCC)CC1 [22b]	8.78E+10		
94.58%	113.77 nm	0.14	8%	<1%		CCCCCCCCCCOC(=O)OCCCCCCN(CCO)CCCCCC(C)(C)COC(=O)CCC(CCCCCC)CCCCCC [26b]	6.53E+10		
94.61%	113.08 nm	0.022	<1%	0%		CCCCCCCCCOC(=O)CCCCCCCN(CCO)CCCCCCC(C)(C)C(=O)OC(CCCCCCCC)CCCCCCCC [1a]	3.52E+10		
			92 ± 3.5%	89 ± 4.7%	about 90%	CCCCCCCCCOC(=O)C(C)(C)CCCCCCN(CCO)CCCCCCC(C)(C)C(=O)OC(CCCCCCCC)CCCCCCCC [Control group, reference compound]			
86.94%	107.40 nm	0.12	4%	<2%		CCCCCCCCCOC(=O)OCCCCCCN(CCO)CCCCCCC(C)(C)C(=O)OC(CCCCCCCC)CCCCCCCC [30a]	8.32E+10		
93.58%	102.67 nm	0.07	<1%	<1%		CCCCCCCCCCC(=O)OCC(C)(C)CCCCCN(CCCCCCCC(=O)OC(CCCCCCCCC)CCCCCCCCC)C(=O)SCCCN(C)C [39b]	7.16E+10		
89.27%	99.02 nm	0.018	8 ± 2.7%	<1%		CCCCCCCCCC(=O)OCC(C)(C)CCCCCN(CCO)CCCCCCCC(=O)OCC(CCCCCCC)CCCCCCC [13b]	1.81E+11		
97.78%	98.91 nm	0.09				CCCCCCCCCCC(=O)OCC(C)(C)CCCCCN(CCCCCCOC(=O)OC(CCCCCCCCC)CCCCCCCCC)C(=O)SCCCCN(C)C [46b]	2.44E+10		
94.47%	103.93 nm	0.04				CCCCCCCCCCCOC(=O)CCCCC(C)(C)CCN(CCCCO)CCCCCCCC(=O)OC(CCCCCCCCCC)CCCCCCCCCC [68a]	7.55E+10		
92.10%	97.75 nm	0.15				CCCCCCCCCCC(=O)OCCCC(C)(C)CCCN(CCO)CCCCCCCCC(=O)OCC(CCCCCCC)CCCCCCC [96b]	3.77E+10		
96.30%	88.28 nm	0.23				CCCCCCCCCC(=O)OCC(C)(C)CCCCCN(CCO)CCCCCCC(=O)OCC(CCCCCCCC)CCCCCCCC [67b]	1.71E+11		
74.43%	102.32 nm	0.015	12 ± 3.8%	<1%		CCCCCCCCCC(=O)OCC(C)(C)CCCCCN(CCCCO)CCCCCCCC(=O)OC(CCCCCCCC)CCCCCCCC [3b]	1.41E+11		
88.37%	110.00 nm	0.016				CCCCCCCCC(CCCCCCCC)OC(=O)C(C)(C)CCCCCCN(CCO)CCCCCC(=O)OCCCCCCCCCC(C)C [21a]	8.84E+10		
95.41%	84.62 nm	0.15				CCCCCCCCCCC(=O)OCCCC(C)(C)CCCN(CCO)CCCCCCC(=O)OCC(CCCCCCCCC)CCCCCCCCC [95b]	2.44E+10		

Compound	Encapsulation efficiency (%) [1]	Particle size (nm) [2]	Particle-size distribution (PDI) [2]	Percentage of cationic lipids in the liver in the total dose, 24 h after administration (%) [3]	Percentage of cationic lipids in the liver in the total dose, 72 h after administration (%) [3]	Percentage of cationic lipids in the liver in the total dose, 72 h after administration (%) ([3]; listed as control group)	Total photon count in vivo at 6 hours after administration (Total Flux) (C57BL/6 mice)	Cell viability (%) (HEK293T cells [4])	Luciferase luminescence of cell lysate (HEK293T cells [5])
CCCCCCCCCC(=O)OCC(C)(C)CCCCCN(CCO)CCCCCCCC(=O)OCCCCC(CCCC)CCCC [12b]	91.04%	104.60 nm	0.031	<1%	0%		1.19E+10		
CCCCCCCCCC(=O)OCC(C)(C)CCCCCN(CCO)CCCCCCCC(=O)OCCC(CCCCCC)CCCCCC [10b]	72.72%	114.72 nm	0.052	5 ± 3.1%	<1%		3.15E+10		
CCCCCCCCCOC(=O)CCCCCCCN(CCO)CCCCC(C)(C)CCC(=O)OC(CCCCCCCC)CCCCCCCC [20a]	87.83%	102.13 nm	0.032				1.18E+11	105.11%	6.55E+06 RLU
CCCCC#CCCCOC(=O)CCCCCCCN(CCO)CCCCCCC(C)(C)C(=O)OC(CCCCCCCC)CCCCCCCC [56a]	82.84%	86.37 nm	0.09	<1%	<1%		3.23E+10		
CCCCCCCCCOC(=O)CCCCCCCN(CCCO)CCCCCCC(C)(C)C(=O)OC(CCCCCCCC)CCCCCCCC [4a]	92.87%	103.7 nm	0.005	<1%	0%		3.25E+10		
CCCCCCCCCCCOC(=O)CCCCCN(CCO)CCCCCCC(C)(C)C(=O)OCC(CCCCCCC)CCCCCCC [14a]	91.67%	90.99 nm	0.012				1.09E+11		
